Test results published in paper PMC5218480 (PLoS ONE, 2017).

Test system: MV-4-11 cells
Test: Gene expression microarray analysis (Affymetrix PrimeView) and GSEA
Type: cell-based, human
Design: RFU PODN (11730768_x_at) / Fold change /veh PODN (11730768_x_at) / RFU LINC00158 (11744669_a_at) / Fold change /veh LINC00158 (11744669_a_at) / RFU DUSP10 (11751237_a_at) / Fold change /veh DUSP10 (11751237_a_at) / RFU ID3 (11757404_x_at) / Fold change /veh ID3 (11757404_x_at) / RFU PLEKHG5 (11737974_s_at) / Fold change /veh PLEKHG5 (11737974_s_at) / RFU LRRC4B (11730491_at) / Fold change /veh LRRC4B (11730491_at) / RFU GIMAP4 (11747438_a_at) / Fold change /veh GIMAP4 (11747438_a_at) / RFU KRT8 (11758183_x_at) / Fold change /veh KRT8 (11758183_x_at) / RFU CNN1 (11734310_a_at) / Fold change /veh CNN1 (11734310_a_at) / RFU VPS37D (11726825_at) / Fold change /veh VPS37D (11726825_at) / RFU C10orf10 (11716522_x_at) / Fold change /veh C10orf10 (11716522_x_at) / RFU KIR2DL2 /// KIR2DL4 /// KIR2DL5A /// KIR2DL5B /// KIR2DS1 /// KIR2DS2 /// KIR2DS3 /// KIR2DS4 /// KIR3DL3 /// KIR3DL3 /// KIR3DS1 (11738374_at) / Fold change /veh KIR2DL2 /// KIR2DL4 /// KIR2DL5A /// KIR2DL5B /// KIR2DS1 /// KIR2DS2 /// KIR2DS3 /// KIR2DS4 /// KIR3DL3 /// KIR3DL3 /// KIR3DS1 (11738374_at) / RFU C1QL1 (11718748_at) / Fold change /veh C1QL1 (11718748_at) / RFU TMPRSS4 (11747572_a_at) / Fold change /veh TMPRSS4 (11747572_a_at) / RFU HAMP (11756126_x_at) / Fold change /veh HAMP (11756126_x_at) / RFU RNFT2 (11725882_a_at) / Fold change /veh RNFT2 (11725882_a_at) / RFU NR4A2 (11747474_a_at) / Fold change /veh NR4A2 (11747474_a_at) / RFU ABCC12 (11746883_a_at) / Fold change /veh ABCC12 (11746883_a_at) / RFU TMEM136 (11760407_x_at) / Fold change /veh TMEM136 (11760407_x_at) / RFU CLDN22 /// WWC2 (11732394_at) / Fold change /veh CLDN22 /// WWC2 (11732394_at) / RFU HLA-DPB1 (11760878_x_at) / Fold change /veh HLA-DPB1 (11760878_x_at) / RFU SPINT1 (11716480_a_at) / Fold change /veh SPINT1 (11716480_a_at) / RFU GAP43 (11754022_s_at) / Fold change /veh GAP43 (11754022_s_at) / RFU A4GNT (11735810_at) / Fold change /veh A4GNT (11735810_at) / RFU PRB3 (11715151_x_at) / Fold change /veh PRB3 (11715151_x_at) / RFU TUBB4B (11761932_at) / Fold change /veh TUBB4B (11761932_at) / RFU CAPN14 (11732068_a_at) / Fold change /veh CAPN14 (11732068_a_at) / RFU TMCC2 (11721928_a_at) / Fold change /veh TMCC2 (11721928_a_at) / RFU IRGQ (11745062_a_at) / Fold change /veh IRGQ (11745062_a_at) / RFU FAM174B (11720279_a_at) / Fold change /veh FAM174B (11720279_a_at) / RFU TMPRSS4 (11748680_a_at) / Fold change /veh TMPRSS4 (11748680_a_at) / RFU FAM212B (11763350_a_at) / Fold change /veh FAM212B (11763350_a_at) / RFU PLEKHG5 (11743358_a_at) / Fold change /veh PLEKHG5 (11743358_a_at) / RFU ZSCAN30 (11745921_a_at) / Fold change /veh ZSCAN30 (11745921_a_at) / RFU CMKLR1 (11741424_a_at) / Fold change /veh CMKLR1 (11741424_a_at) / RFU LOC101060620 /// MAPK8IP1 (11723275_at) / Fold change /veh LOC101060620 /// MAPK8IP1 (11723275_at) / RFU SPTSSB (11747773_x_at) / Fold change /veh SPTSSB (11747773_x_at) / RFU PRSS12 (11739890_at) / Fold change /veh PRSS12 (11739890_at) / RFU BIN1 (11741810_x_at) / Fold change /veh BIN1 (11741810_x_at) / RFU WNT11 (11732464_a_at) / Fold change /veh WNT11 (11732464_a_at) / RFU C10orf10 (11716521_a_at) / Fold change /veh C10orf10 (11716521_a_at) / RFU C5orf56 (11738089_at) / Fold change /veh C5orf56 (11738089_at) / RFU CYB561 (11721691_x_at) / Fold change /veh CYB561 (11721691_x_at) / RFU ANKRD19P (11752326_a_at) / Fold change /veh ANKRD19P (11752326_a_at) / RFU OR2T12 /// OR2T33 /// OR2T8 (11738714_s_at) / Fold change /veh OR2T12 /// OR2T33 /// OR2T8 (11738714_s_at) / RFU VCAN (11748164_a_at) / Fold change /veh VCAN (11748164_a_at) / RFU JSRP1 (11732532_at) / Fold change /veh JSRP1 (11732532_at) / RFU KRTAP10-11 (11738290_x_at) / Fold change /veh KRTAP10-11 (11738290_x_at) / RFU MYO3A (11730013_a_at) / Fold change /veh MYO3A (11730013_a_at) / RFU EBF3 (11725865_a_at) / Fold change /veh EBF3 (11725865_a_at) / RFU CAMK2N1 (11719241_x_at) / Fold change /veh CAMK2N1 (11719241_x_at) / RFU C5orf56 (11738088_a_at) / Fold change /veh C5orf56 (11738088_a_at) / RFU OLFML3 (11715873_a_at) / Fold change /veh OLFML3 (11715873_a_at) / RFU LOC100653217 /// NTM (11731650_a_at) / Fold change /veh LOC100653217 /// NTM (11731650_a_at) / RFU MAPK11 (11762145_a_at) / Fold change /veh MAPK11 (11762145_a_at) / RFU FIZ1 (11724087_x_at) / Fold change /veh FIZ1 (11724087_x_at) / RFU OASL (11726364_x_at) / Fold change /veh OASL (11726364_x_at) / RFU SOX15 (11748057_x_at) / Fold change /veh SOX15 (11748057_x_at) / RFU CD79A (11719716_a_at) / Fold change /veh CD79A (11719716_a_at) / RFU HIST1H1D (11736915_at) / Fold change /veh HIST1H1D (11736915_at) / RFU CASKIN2 (11723855_a_at) / Fold change /veh CASKIN2 (11723855_a_at) / RFU LOC730098 (11760151_x_at) / Fold change /veh LOC730098 (11760151_x_at) / RFU OR4N2 (11742367_at) / Fold change /veh OR4N2 (11742367_at) / RFU PRRT2 (11749266_a_at) / Fold change /veh PRRT2 (11749266_a_at) / RFU SNX32 (11753110_a_at) / Fold change /veh SNX32 (11753110_a_at) / RFU CDHR5 (11726645_a_at) / Fold change /veh CDHR5 (11726645_a_at) / RFU RCAN1 (11760418_a_at) / Fold change /veh RCAN1 (11760418_a_at) / RFU FAM167A (11723789_a_at) / Fold change /veh FAM167A (11723789_a_at) / RFU FAM26E (11764081_at) / Fold change /veh FAM26E (11764081_at) / RFU ISYNA1 (11749810_s_at) / Fold change /veh ISYNA1 (11749810_s_at) / RFU ACY1 (11761880_at) / Fold change /veh ACY1 (11761880_at) / RFU 11764098_at / Fold change /veh 11764098_at / RFU SAMD14 (11745864_x_at) / Fold change /veh SAMD14 (11745864_x_at) / RFU NPB (11741838_a_at) / Fold change /veh NPB (11741838_a_at) / RFU TMPRSS6 (11731388_a_at) / Fold change /veh TMPRSS6 (11731388_a_at) / RFU KRTAP10-2 (11738614_at) / Fold change /veh KRTAP10-2 (11738614_at) / RFU ARHGAP8 /// PRR5-ARHGAP8 (11727945_x_at) / Fold change /veh ARHGAP8 /// PRR5-ARHGAP8 (11727945_x_at) / RFU KRTAP5-7 /// NADSYN1 (11734609_at) / Fold change /veh KRTAP5-7 /// NADSYN1 (11734609_at) / RFU RASL12 (11751679_a_at) / Fold change /veh RASL12 (11751679_a_at) / RFU CDKN2B (11736163_a_at) / Fold change /veh CDKN2B (11736163_a_at) / RFU PRF1 (11729649_at) / Fold change /veh PRF1 (11729649_at) / RFU, ZNF638 /// ZNF638-IT1 / Fold change vs veh, ZNF638 /// ZNF638-IT1 / RFU, PANK3 / Fold change vs veh, PANK3 / RFU, SH3YL1 / Fold change vs veh, SH3YL1 / RFU, ZEB2 / Fold change vs veh, ZEB2 / RFU, NRIP1 / Fold change vs veh, NRIP1 / RFU, PTTG1IP / Fold change vs veh, PTTG1IP / RFU, CAPN2 / Fold change vs veh, CAPN2 / RFU, MED14 / Fold change vs veh, MED14 / RFU, SNORA58 / Fold change vs veh, SNORA58 / RFU, C1orf63 / Fold change vs veh, C1orf63 / RFU, LRRFIP1 / Fold change vs veh, LRRFIP1 / RFU, NDUFAF7 / Fold change vs veh, NDUFAF7 / RFU, SLC12A2 / Fold change vs veh, SLC12A2 / RFU, IBTK / Fold change vs veh, IBTK / RFU, ESF1 / Fold change vs veh, ESF1 / Fold change vs veh, TMEM50B / RFU, TAOK1 / Fold change vs veh, TAOK1 / RFU, ACBD3 / Fold change vs veh, ACBD3 / RFU, TMA16 / Fold change vs veh, TMA16 / RFU, RWDD3 / Fold change vs veh, RWDD3 / RFU, BCAT1 / Fold change vs veh, BCAT1 / RFU, EDEM3 / Fold change vs veh, EDEM3 / RFU, TMEM33 / Fold change vs veh, TMEM33 / RFU, WDR75 / Fold change vs veh, WDR75 / RFU, AHCTF1 / Fold change vs veh, AHCTF1 / RFU, TFRC / Fold change vs veh, TFRC / RFU, ZDHHC17 / Fold change vs veh, ZDHHC17 / RFU, NOM1 / Fold change vs veh, NOM1 / RFU, ARL8B / Fold change vs veh, ARL8B / RFU, ZBTB11 / Fold change vs veh, ZBTB11 / RFU, TAMM41 / Fold change vs veh, TAMM41 / RFU, KIAA1704 /// LOC100996395 / Fold change vs veh, KIAA1704 /// LOC100996395 / RFU, ING1 / Fold change vs veh, ING1 / RFU, TRMT61B / Fold change vs veh, TRMT61B / RFU, FUBP3 / Fold change vs veh, FUBP3 / RFU, TP53 / Fold change vs veh, TP53 / RFU, TNKS2 / Fold change vs veh, TNKS2 / RFU, ZFP14 / Fold change vs veh, ZFP14 / RFU, ACTR2 / Fold change vs veh, ACTR2 / RFU, PPP3R1 / Fold change vs veh, PPP3R1 / RFU, PIK3R1 / Fold change vs veh, PIK3R1 / RFU, HNRNPA1 / Fold change vs veh, HNRNPA1 / RFU, RNF170 / Fold change vs veh, RNF170 / RFU, ZNF28 / Fold change vs veh, ZNF28 / RFU, RNGTT / Fold change vs veh, RNGTT / RFU, OGT / Fold change vs veh, OGT / RFU, BRD1 / Fold change vs veh, BRD1 / RFU, MARS / Fold change vs veh, MARS / RFU, ZNF655 / Fold change vs veh, ZNF655 / RFU, FAHD1 / Fold change vs veh, FAHD1 / RFU, BDP1 / Fold change vs veh, BDP1 / RFU, LRRCC1 / Fold change vs veh, LRRCC1 / RFU, ARID1A / Fold change vs veh, ARID1A / RFU, ZNF146 / Fold change vs veh, ZNF146 / RFU, ZNF330 / Fold change vs veh, ZNF330 / RFU, GPN3 / Fold change vs veh, GPN3 / RFU, C9orf123 / Fold change vs veh, C9orf123 / RFU, N4BP2L2 / Fold change vs veh, N4BP2L2 / RFU, ARFIP1 / Fold change vs veh, ARFIP1 / RFU, FAM179B / Fold change vs veh, FAM179B / RFU, BCL10 / Fold change vs veh, BCL10 / RFU, UHRF1BP1L / Fold change vs veh, UHRF1BP1L / RFU, BET1 / Fold change vs veh, BET1 / RFU, CNOT2 / Fold change vs veh, CNOT2 / RFU, ZNF268 / Fold change vs veh, ZNF268 / Fold change vs veh, ZNF507 / RFU, DGCR2 / Fold change vs veh, DGCR2 / RFU, WDSUB1 / Fold change vs veh, WDSUB1 / Fold change vs veh, HSP90B1 /// MIR3652 / RFU, ADSS / Fold change vs veh, ADSS / RFU, GK / Fold change vs veh, GK / RFU, ZNF148 / Fold change vs veh, ZNF148 / RFU, TAF9 / Fold change vs veh, TAF9 / RFU, SLC1A5 / Fold change vs veh, SLC1A5 / RFU, SLMO2 / Fold change vs veh, SLMO2 / RFU, ABCC4 / Fold change vs veh, ABCC4 / RFU, LOC101060439 /// RAP1B / Fold change vs veh, LOC101060439 /// RAP1B / RFU, RFX7 / Fold change vs veh, RFX7 / RFU, GTPBP10 / Fold change vs veh, GTPBP10 / RFU, CNEP1R1 / Fold change vs veh, CNEP1R1 / RFU, BIVM-ERCC5 /// ERCC5 / Fold change vs veh, BIVM-ERCC5 /// ERCC5 / RFU, ILF3 / Fold change vs veh, ILF3 / RFU 11762660_at / Fold change /veh 11762660_at / RFU VCAN (11757783_s_at) / Fold change /veh VCAN (11757783_s_at) / RFU DDX43 (11728927_at) / Fold change /veh DDX43 (11728927_at) / RFU KRT8 (11758188_x_at) / Fold change /veh KRT8 (11758188_x_at) / RFU NKD1 (11759106_at) / Fold change /veh NKD1 (11759106_at) / RFU SRD5A1 (11742802_a_at) / Fold change /veh SRD5A1 (11742802_a_at) / RFU TPSAB1 /// TPSB2 (11721975_s_at) / Fold change /veh TPSAB1 /// TPSB2 (11721975_s_at) / RFU GSTM3 (11746129_a_at) / Fold change /veh GSTM3 (11746129_a_at) / RFU IL23R (11737362_x_at) / Fold change /veh IL23R (11737362_x_at) / RFU TMEM51 (11727254_a_at) / Fold change /veh TMEM51 (11727254_a_at) / RFU PIWIL2 (11732686_x_at) / Fold change /veh PIWIL2 (11732686_x_at) / RFU ORM1 (11744905_x_at) / Fold change /veh ORM1 (11744905_x_at) / RFU CCDC152 (11743942_at) / Fold change /veh CCDC152 (11743942_at) / RFU ECM1 (11717891_a_at) / Fold change /veh ECM1 (11717891_a_at) / RFU IL23R (11748794_a_at) / Fold change /veh IL23R (11748794_a_at) / RFU TNFAIP8L3 (11732012_x_at) / Fold change /veh TNFAIP8L3 (11732012_x_at) / RFU MBOAT4 (11741988_at) / Fold change /veh MBOAT4 (11741988_at) / RFU 11764193_at / Fold change /veh 11764193_at / RFU TMEM53 (11763286_at) / Fold change /veh TMEM53 (11763286_at) / RFU MAGEB2 (11727129_at) / Fold change /veh MAGEB2 (11727129_at) / RFU TMEM200A (11744735_a_at) / Fold change /veh TMEM200A (11744735_a_at) / RFU CCDC152 (11751479_a_at) / Fold change /veh CCDC152 (11751479_a_at) / RFU FAM211A (11726209_a_at) / Fold change /veh FAM211A (11726209_a_at) / RFU RGS16 (11746705_a_at) / Fold change /veh RGS16 (11746705_a_at) / RFU VCAN (11755009_s_at) / Fold change /veh VCAN (11755009_s_at) / RFU RHOB (11743442_s_at) / Fold change /veh RHOB (11743442_s_at) / RFU RGS16 (11720943_a_at) / Fold change /veh RGS16 (11720943_a_at) / RFU RGS16 (11720944_at) / Fold change /veh RGS16 (11720944_at) / RFU, VPS4B / Fold change vs veh, VPS4B / RFU, CREB1 / Fold change vs veh, CREB1 / RFU, DNAJC13 / Fold change vs veh, DNAJC13 / RFU, GNAQ / Fold change vs veh, GNAQ / RFU, CDK5R1 / Fold change vs veh, CDK5R1 / RFU, ZRANB3 / Fold change vs veh, ZRANB3 / RFU, CUL4A / Fold change vs veh, CUL4A / RFU, CCNY / Fold change vs veh, CCNY / RFU, UFL1 / Fold change vs veh, UFL1 / RFU, COG3 / Fold change vs veh, COG3 / RFU, DIAPH2 / Fold change vs veh, DIAPH2 / RFU, SKA2 / Fold change vs veh, SKA2 / RFU, AFF3 / Fold change vs veh, AFF3 / RFU, LMF1 / Fold change vs veh, LMF1 / RFU, IPO11 / Fold change vs veh, IPO11 / RFU, DFFB / Fold change vs veh, DFFB / RFU, FOXP1 / Fold change vs veh, FOXP1 / RFU, CARD8 / Fold change vs veh, CARD8 / RFU, STRN3 / Fold change vs veh, STRN3 / RFU, ADK / Fold change vs veh, ADK / RFU, RASSF2 / Fold change vs veh, RASSF2 / RFU, WIPF1 / Fold change vs veh, WIPF1 / RFU, LARP1B / Fold change vs veh, LARP1B / RFU, RASA1 / Fold change vs veh, RASA1 / RFU, RB1 / Fold change vs veh, RB1 / RFU, PPFIA1 / Fold change vs veh, PPFIA1 / RFU, MAT2A / Fold change vs veh, MAT2A / RFU, CCT5 / Fold change vs veh, CCT5 / RFU, WDR92 / Fold change vs veh, WDR92 / RFU, CUX1 / Fold change vs veh, CUX1 / RFU, TTC7A / Fold change vs veh, TTC7A / RFU, TMEM135 / Fold change vs veh, TMEM135 / RFU, DEPTOR / Fold change vs veh, DEPTOR / RFU, CPM / Fold change vs veh, CPM / RFU, DNAJB6 / Fold change vs veh, DNAJB6 / RFU, CACNA2D3 / Fold change vs veh, CACNA2D3 / RFU, DTX4 / Fold change vs veh, DTX4 / RFU, TFCP2 / Fold change vs veh, TFCP2 / RFU, GMCL1 /// GMCL1P1 / Fold change vs veh, GMCL1 /// GMCL1P1 / RFU, AEBP2 / Fold change vs veh, AEBP2 / RFU, SNHG1 /// SNORD22 /// SNORD25 /// SNORD26 /// SNORD27 /// SNORD28 /// SNORD29 /// SNORD31 / Fold change vs veh, SNHG1 /// SNORD22 /// SNORD25 /// SNORD26 /// SNORD27 /// SNORD28 /// SNORD29 /// SNORD31 / Fold change (Aza/veh), C12orf56 (ProbeSet 11735607_a_at) / Fold change (ACY-1035/veh), C12orf56 (ProbeSet 11735607_a_at) / Fold change (Aza/veh), FGFR1OP (ProbeSet 11751329_s_at) / Fold change (ACY-1035/veh), FGFR1OP (ProbeSet 11751329_s_at) / Fold change (Aza/veh), VPS36 (ProbeSet 11739960_a_at) / Fold change (ACY-1035/veh), VPS36 (ProbeSet 11739960_a_at) / RFU SYPL1 (11715823_x_at) / Fold change /veh SYPL1 (11715823_x_at) / RFU IGFBP7 (11715501_s_at) / Fold change /veh IGFBP7 (11715501_s_at) / RFU REEP3 (11722064_at) / Fold change /veh REEP3 (11722064_at) / RFU IGLL1 (11728026_x_at) / Fold change /veh IGLL1 (11728026_x_at): dose or concentration left out as unconfirmed
Settings: MV-4-11 cells, 48 hours

Nc1ccc(-c2cccs2)cc1NC(=O)c1ccc2c(c1)cc(C1CC1)n2CCN1CCOCC1 [ACY-1035]
RFU VCAN (11748164_a_at): 5.33 RFU
